Where “and” joins values, the source holds several entries; their conditions need not be identical. Identical values can stand only once.
Tested on: human erythrocytes
Assay: human erythrocyte hemolytic activity
Assay type: cell-based
Conditions: 37° C., 30 minutes
Description: In order to evaluate the acute toxicities of the wasp extracts, the human erythrocyte hemolytic activities of the wasp extracts were evaluated, and the results of the evaluation are shown in Table 3 below. At this time, the hemolytic activity was evaluated according to a previous report (Son Ho-Yong et al., 2014, Korean J. Microbiol. Biotechnol. 42: 285-292). Briefly, 100 μl of human erythrocytes were washed three times with PBS and added to a 96-well microplate, and 100 μl of a sample solution at various concentrations was added thereto and then allowed to react at 37° C. for 30 minutes. Thereafter, the reaction solution was centrifuged at 1,500 rpm for 10 minutes, and 100 μl of the supernatant was transferred to a fresh microtiter plate, and then the degree of hemoglobin leakage following hemolysis was measured at 414 nm. DMSO (2%) was used as a solvent control for the sample, and Triton X-100 (1 mg/ml) was used as an experimental control for hemolysis of erythrocytes. Hemolytic activity was calculated using the following equation.
(%) Hemolysis=[(Abs. S−Abs. C)/(Abs. T−Abs. C)]×100
Abs. S: absorbance of sample-added group
Abs. C: absorbance of DMSO-added group
Abs. T: absorbance of Triton X-100-added group

| Compound | Human erythrocyte hemolytic activity (0.0032 mg/ml) [%] | Human erythrocyte hemolytic activity (0.0063 mg/ml) [%] | Human erythrocyte hemolytic activity (0.0125 mg/ml) [%] | Human erythrocyte hemolytic activity (0.05 mg/ml) [%] | Human erythrocyte hemolytic activity (0.1 mg/ml) [%] | Human erythrocyte hemolytic activity (1.0 mg/ml) |
| --- | --- | --- | --- | --- | --- | --- |
| C[C@@H]1[C@H](O)[C@@H](C)/C=C/C=C/C=C/C=C/C=C/C=C/C=C/[C@H](O[C@@H]2O[C@H](C)[C@@H](O)[C@H](N)[C@@H]2O)C[C@@H]2O[C@](O)(C[C@@H](O)C[C@@H](O)[C@H](O)CC[C@@H](O)C[C@@H](O)CC(=O)O[C@H]1C)C[C@H](O)[C@H]2C(=O)O [Amphotericin B] | 6.54 ± 0.9 | 21.6 ± 3.7 | 48.2 ± 5.9 | 72.4 ± 5.2 | 95.8 ± 0.3 |  |
| Triton X-100 |  |  |  |  |  | 100% and 100.0 ± 0.1% |

Reference: patent US20230040357A1, “PHARMACEUTICAL COMPOSITION AND HEALTH FUNCTIONAL FOOD FOR PREVENTING, AMELIORATING OR TREATING DIABETES CONTAINING WASP EXTRACT AS ACTIVE INGREDIENT” (Andong National University Industry-Academic cooperation …, priority 2021, published 2023)
